Where a chain is given by its changes, count along the chain named. Names may count otherwise.
B1: Thermotoga maritima Rad50^NBD (residues 1-190 and 686-852 joined by the linker GGAGGAGG) (domain or fragment)
chain: MRPERLTVRNFLGLKNVDIEFQSGITVVEGPNGAGKSSLFEAISFALFGNGIRYPNSYDYVNRNAVDGTARLVFQFERGGKRYEIIREINALQRKHNAKLSEILENGKKAAIAAKPTSVKQEVEKILGIEHRTFIRTVFLPQGEIDKLLISPPSEITEIISDVFQSKETLEKLEKLLKEKMKKLENEISSGGAGGAGGSLEKKLKEMSDEYNNLDLLRKYLFDKSNFSRYFTGRVLEAVLKRTKAYLDILTNGRFDIDFDDEKGGFIIKDWGIERPARGLSGGERALISISLAMSLAEVASGRLDAFFIDEGFSSLDTENKEKIASVLKELERLNKVIVFITHDREFSEAFDRKLRITGGVVVNE
B2: Thermotoga maritima Mre11 S110C (enzyme, UniProt Q9X1X0 7-385, looked up)
chain: MKILHTSDWHLGVTSWTSSRPVDRREELKKALDKVVEEAEKREVDLILLTGDLLHSRNNPSVVALHDLLDYLKRMMRTAPVVVLPGNHDWKGLKLFGNFVTSICSDITFVMSFEPVDVEAKRGQKVRILPFPYPDESEALRKNEGDFRFFLESRLNKLYEEALKKEDFAIFMGHFTVEGLAGYAGIEQGREIIINRALIPSVVDYAALGHIHSFREIQKQPLTIYPGSLIRIDFGEEADEKGAVFVELKRGEPPRYERIDASPLPLKTLYYKKIDTSALKSIRDFCRNFPGYVRVVYEEDSGILPDLMGEIDNLVKIERKSRREIEEVLRESPEEFKEELDKLDYFELFKEYLKKREENHEKLLKILDELLDEVKKSEA
B3: Thermotoga maritima Mre11 (residues L7M-385) (enzyme, UniProt Q9X1X0 7-385, looked up)
chain: B2 chain with C104S

Tests used:
[1] = molecular target: T1, TmMre11:Rad50^NBD (TmMR^NBD catalytic head) (Thermotoga maritima, UniProt Q9X1X1, DEL191-685); experiment: SPR and EMSA, nucleotide-stimulated DNA binding; format: biochemical; conditions: dsDNA 50mer, hairpin DNA
[2] = molecular target: T1, TmMre11:Rad50^NBD (TmMR^NBD catalytic head); experiment: SAXS, compaction of catalytic head; format: binding; conditions: 50 mM Tris pH 7.7, 100 mM NaCl, 5 mM MnCl2, 10 mM MgCl2
[3] = molecular target: TmMre11:Rad50^NBD (TmMR^NBD catalytic head) (Thermotoga maritima, UniProt Q9X1X1, DEL191-685/D804C/H830C); experiment: ATP-induced disulfide bond formation between Rad50 NBDs; format: binding; conditions: Cu2+
[4] = molecular target: TmMre11:Rad50^NBD (TmMR^NBD catalytic head) (Thermotoga maritima, UniProt Q9X1X1, DEL191-685/D804C/H830C, form not given); experiment: as above; format: binding; conditions: Cu2+
[5] = molecular target: TmMre11:Rad50^NBD (TmMR^NBD catalytic head) (Thermotoga maritima, UniProt Q9X1X1, DEL191-685, form not given); experiment: reduced BMOE crosslinking of Mre11 dimer, SDS PAGE; format: binding; conditions: nucleotide binds Rad50; read-out at Mre11 dimer interface
[6] = molecular target: T1, TmMre11:Rad50^NBD (TmMR^NBD catalytic head); experiment: ATPase activity; format: biochemical
[7] = molecular target: TmMre11:Rad50^NBD (TmMR^NBD catalytic head) (Thermotoga maritima, UniProt Q9X1X1, N64C/DEL191-685/I760C); experiment: ATP-dependent BMOE crosslinking of Rad50 NBDs, SDS PAGE; format: binding
[8] = molecular target: B3; experiment: crystal structure
co-purification = molecular target: the molecule itself; experiment: co-purification
crystal structure = molecular target: the molecule itself; experiment: crystal structure

T1 sequence (Q9X1X0 7-385 L7M, one chain of several): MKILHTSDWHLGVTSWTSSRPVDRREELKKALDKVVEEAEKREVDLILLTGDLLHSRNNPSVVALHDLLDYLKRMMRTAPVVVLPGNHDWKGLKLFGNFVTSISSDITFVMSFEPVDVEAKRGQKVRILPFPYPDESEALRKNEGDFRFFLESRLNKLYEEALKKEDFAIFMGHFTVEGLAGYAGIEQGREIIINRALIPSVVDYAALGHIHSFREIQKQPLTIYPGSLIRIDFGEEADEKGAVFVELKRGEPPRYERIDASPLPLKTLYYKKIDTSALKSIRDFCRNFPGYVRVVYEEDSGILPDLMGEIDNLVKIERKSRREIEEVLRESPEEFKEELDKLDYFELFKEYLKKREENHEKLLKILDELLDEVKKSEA
TmMre11:Rad50^NBD (TmMR^NBD catalytic head) (Thermotoga maritima, UniProt Q9X1X1, N64C/DEL191-685/I760C), sequence (Q9X1X0 7-385 L7M): as the sequence (Q9X1X0 7-385 L7M, one chain of several) above
TmMre11:Rad50^NBD (TmMR^NBD catalytic head) (Thermotoga maritima, UniProt Q9X1X1, N64C/DEL191-685/I760C), sequence (Q9X1X1 1-190 N64C): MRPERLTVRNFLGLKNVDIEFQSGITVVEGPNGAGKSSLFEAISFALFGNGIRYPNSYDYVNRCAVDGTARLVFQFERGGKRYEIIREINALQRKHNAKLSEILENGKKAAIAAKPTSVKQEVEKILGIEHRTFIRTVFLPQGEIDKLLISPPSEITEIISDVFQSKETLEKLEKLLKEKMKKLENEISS
TmMre11:Rad50^NBD (TmMR^NBD catalytic head) (Thermotoga maritima, UniProt Q9X1X1, N64C/DEL191-685/I760C), sequence (Q9X1X1 686-852 I760C): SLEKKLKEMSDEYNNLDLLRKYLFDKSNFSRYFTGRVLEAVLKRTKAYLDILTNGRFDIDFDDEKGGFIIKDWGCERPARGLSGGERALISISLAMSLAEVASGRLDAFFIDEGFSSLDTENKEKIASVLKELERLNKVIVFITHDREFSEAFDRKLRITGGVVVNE
TmMre11:Rad50^NBD (TmMR^NBD catalytic head) (Thermotoga maritima, UniProt Q9X1X1, DEL191-685/D804C/H830C, form not given), sequence (Q9X1X0 7-385 L7M/F291S, form open, one chain of several, further chain): as the sequence (Q9X1X0 7-385 L7M, one chain of several) above, with F285S counted along it
TmMre11:Rad50^NBD (TmMR^NBD catalytic head) (Thermotoga maritima, UniProt Q9X1X1, DEL191-685/D804C/H830C, form not given), sequence (Q9X1X1 686-852 D804C/H830C, form open, one chain of several): as the sequence (Q9X1X1 686-852 I760C) above, with C75I, D119C, H145C counted along it
TmMre11:Rad50^NBD (TmMR^NBD catalytic head) (Thermotoga maritima, UniProt Q9X1X1, DEL191-685/D804C/H830C), sequence (Q9X1X1 686-852 D804C/H830C, one chain of several): as the sequence (Q9X1X1 686-852 I760C) above, with C75I, D119C, H145C counted along it
TmMre11:Rad50^NBD (TmMR^NBD catalytic head) (Thermotoga maritima, UniProt Q9X1X1, DEL191-685/D804C/H830C), sequence (Q9X1X0 7-385 L7M, one chain of several, further chain): as the sequence (Q9X1X0 7-385 L7M, one chain of several) above

Molecule: Nc1ncnc2c1ncn2[C@@H]1O[C@H](COP(=O)(O)OP(=O)(O)NP(=O)(O)O)[C@@H](O)[C@H]1O [AMPPNP]
SPR and EMSA, nucleotide-stimulated DNA binding [1]: SPR showed a strong effect of AMPPNP on dsDNA and hairpin DNA binding by TmMre11:Rad50^NBD

Molecule: Nc1ncnc2c1ncn2[C@@H]1O[C@H](COP(=O)(O)OP(=O)(O)OP(O)(O)=S)[C@@H](O)[C@H]1O [ATPγS]
SAXS, compaction of catalytic head (radius of gyration) [2]: Adding ATPγS indeed resulted in a substantial decrease of the radius of gyration (Rg)

Molecule: Nc1ncnc2c1ncn2[C@@H]1O[C@H](COP(=O)(O)OP(=O)(O)OP(=O)(O)O)[C@@H](O)[C@H]1O [ATP]
ATP-induced disulfide bond formation between Rad50 NBDs [3]: ATP induced formation of a disulfide bond between D804C and H830C
ATP-induced disulfide bond formation between Rad50 NBDs [4]: we can now efficiently crosslink the NBDs by disulfide bond formation
reduced BMOE crosslinking of Mre11 dimer, SDS PAGE [5]: ATP, AMPPNP and ATPγS reduced the ability of BMOE to crosslink Mre11 S110C dimers
ATPase activity [6]: Both proteins form a stoichiometric complex with ATPase as well as DNA binding activity
ATP-dependent BMOE crosslinking of Rad50 NBDs, SDS PAGE [7]: crosslink the two NBDs in the presence of ATP, but not in the absence of ATP

Molecule: B1
binding result [8]: binds

Molecule: B2
binding result (co-purification): binds

Molecule: B3
stoichiometry N (crystal structure): 2

Source: paper PMC3071652 (Cell, 2011)
